Measured values taken from patent US5831026A, “Process for purifying factor VIII” (Pharmacia & Upjohn AB, priority 1994, dated 1998).
Read-outs that look alike come from different tables or passages of the source.

Experiments:
factor VIII [1] = settings: ambient temperature, vs zero-time value
Method: Conditioned mediums (containing human serum albumin) from four harvests being different from the previous Examples were clarified and buffered with NH4 Ac. Each resulting solution, with a pH of 6.8, was loaded onto a column containing SP SEPHAROSE® FF. This cation-exchange chromatography step was performed at about 8° C. After washing, factor VIII was eluted with a salt buffer containing 0.8M NaCl and 0.1M NH4 Ac. The washing liquid as well as the elution liquid contained 3 mM EDTA. Tests without EDTA present were carried out for comparison. The procoagulant activity of factor VIII was determined by use of a chromogenic substrate method, COATEST® Factor VIII kit (Chromogenix AB of Sweden) after storage at ambient temperature for up to 24 hours. The relative standard deviation (RSD) of the method is 7%.

factor VIII [2] = test: Activity of factor VIII after addition of complexing agent to eluted solution from SP Sepharose FF, COATEST chromogenic assay; type: biochemical; settings: Example 6 (0.4M NaCl eluate)
Method: Tests without EDTA present were carried out for comparison.
(§1) A conditioned medium (containing human serum albumin) from a different harvest than the previous Examples, was clarified and buffered with NH4 Ac. […] After elution, various amounts of EDTA were added to the resulting solution. Tests without EDTA present were carried out for comparison. The procoagulant activity of factor VIII was determined after storage at ambient temperature for up to 246 hours, in accordance to the procedure described in Example 5.
as §1, with “28” for “246”
A conditioned medium (containing human serum albumin) from a different harvest than the previous Examples, was clarified and buffered with NH4 Ac. The resulting solution was loaded onto a column containing SP SEPHAROSE® FF. This cation-exchange chromatography step was performed at 10° C. […] After elution, EDTA or 1,10-Phenanthroline were added to the resulting solution.

O=C(O)CN(CCN(CC(=O)O)CC(=O)O)CC(=O)O [EDTA, ethylenediamine tetraacetic acid]
Factor VIII activity (%) In preparation with 3 mM EDTA (factor VIII [1]; harvest solution 1, S-eluate storage 0 h): 100%
Factor VIII activity (%) In preparation with 3 mM EDTA (factor VIII [1]; harvest solution 1, S-eluate storage 6 h): 98%
Factor VIII activity (%) In preparation with 3 mM EDTA (factor VIII [1]; harvest solution 1, S-eluate storage 24 h): 100%
Factor VIII activity (%) In preparation with 3 mM EDTA (factor VIII [1]; harvest solution 2, S-eluate storage 0 h): 100%
Factor VIII activity (%) In preparation with 3 mM EDTA (factor VIII [1]; harvest solution 2, S-eluate storage 6 h): 101%
Factor VIII activity (%) In preparation with 3 mM EDTA (factor VIII [1]; harvest solution 2, S-eluate storage 24 h): 98%
Factor VIII activity (%) In preparation with 3 mM EDTA (factor VIII [1]; harvest solution 3, S-eluate storage 0 h): 100%
Factor VIII activity (%) In preparation with 3 mM EDTA (factor VIII [1]; harvest solution 3, S-eluate storage 6 h): 109%
Factor VIII activity (%) In preparation with 3 mM EDTA (factor VIII [1]; harvest solution 3, S-eluate storage 24 h): 109%
Factor VIII activity (%) In preparation with 3 mM EDTA (factor VIII [1]; harvest solution 4, S-eluate storage 0 h): 100%
Factor VIII activity (%) In preparation with 3 mM EDTA (factor VIII [1]; harvest solution 4, S-eluate storage 6 h): 103%
Factor VIII activity (%) In preparation with 3 mM EDTA (factor VIII [1]; harvest solution 4, S-eluate storage 24 h): 102%
Activity of factor VIII in % of the initial value (factor VIII [2]; 0.01 mM EDTA, storage 0 h ambient): 100%
Activity of factor VIII in % of the initial value (factor VIII [2]; 0.01 mM EDTA, storage 2.5 h ambient): 77%
Activity of factor VIII in % of the initial value (factor VIII [2]; 0.01 mM EDTA, storage 5 h ambient): 59%
Activity of factor VIII in % of the initial value (factor VIII [2]; 0.01 mM EDTA, storage 10 h ambient): 32%
Activity of factor VIII in % of the initial value (factor VIII [2]; 0.01 mM EDTA, storage 24 h ambient): 1.9%
Activity of factor VIII in % of the initial value (factor VIII [2]; 0.03 mM EDTA, storage 0 h ambient): 100%
Activity of factor VIII in % of the initial value (factor VIII [2]; 0.03 mM EDTA, storage 2.5 h ambient): 76%
Activity of factor VIII in % of the initial value (factor VIII [2]; 0.03 mM EDTA, storage 5 h ambient): 59%
Activity of factor VIII in % of the initial value (factor VIII [2]; 0.03 mM EDTA, storage 10 h ambient): 33%
Activity of factor VIII in % of the initial value (factor VIII [2]; 0.03 mM EDTA, storage 24 h ambient): 2.1%
Activity of factor VIII in % of the initial value (factor VIII [2]; 0.1 mM EDTA, storage 0 h ambient): 100%
Activity of factor VIII in % of the initial value (factor VIII [2]; 0.1 mM EDTA, storage 2.5 h ambient): 82%
Activity of factor VIII in % of the initial value (factor VIII [2]; 0.1 mM EDTA, storage 5 h ambient): 65%
Activity of factor VIII in % of the initial value (factor VIII [2]; 0.1 mM EDTA, storage 10 h ambient): 43%
Activity of factor VIII in % of the initial value (factor VIII [2]; 0.1 mM EDTA, storage 24 h ambient): 4.6%
Activity of factor VIII in % of the initial value (factor VIII [2]; 0.3 mM EDTA, storage 0 h ambient): 100%
Activity of factor VIII in % of the initial value (factor VIII [2]; 0.3 mM EDTA, storage 2.5 h ambient): 79%
Activity of factor VIII in % of the initial value (factor VIII [2]; 0.3 mM EDTA, storage 5 h ambient): 71%
Activity of factor VIII in % of the initial value (factor VIII [2]; 0.3 mM EDTA, storage 10 h ambient): 55%
Activity of factor VIII in % of the initial value (factor VIII [2]; 0.3 mM EDTA, storage 24 h ambient): 11%
Activity of factor VIII in % of the initial value (factor VIII [2]; 1.0 mM EDTA, storage 0 h ambient): 100%
Activity of factor VIII in % of the initial value (factor VIII [2]; 1.0 mM EDTA, storage 2.5 h ambient): 90%
Activity of factor VIII in % of the initial value (factor VIII [2]; 1.0 mM EDTA, storage 5 h ambient): 97%
Activity of factor VIII in % of the initial value (factor VIII [2]; 1.0 mM EDTA, storage 10 h ambient): 97%
Activity of factor VIII in % of the initial value (factor VIII [2]; 1.0 mM EDTA, storage 24 h ambient): 75%
Activity of factor VIII in % of the initial value (factor VIII [2]; 1.0 mM EDTA, storage 48 h ambient): 54%
Activity of factor VIII in % of the initial value (factor VIII [2]; 3.0 mM EDTA, storage 0 h ambient): 100%
Activity of factor VIII in % of the initial value (factor VIII [2]; 3.0 mM EDTA, storage 2.5 h ambient): 92%
Activity of factor VIII in % of the initial value (factor VIII [2]; 3.0 mM EDTA, storage 5 h ambient): 102%
Activity of factor VIII in % of the initial value (factor VIII [2]; 3.0 mM EDTA, storage 10 h ambient): 104%
